What all share (assay): Z'-LYTE kinase panel
Common to all, as to assay type: biochemical

One experiment deals with T1, CDC42 BPA (MRCKA) (Homo sapiens, UniProt Q5VT25).
T1 construct: purchased ThermoFisher (SelectScreen, Z'-LYTE)
The procedure, abridged:
(§1)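 Compounds were profiled across a 225-kinase standard panel. Each kinase was run in the standard Z′-LYTE assay and percentage inhibition was recorded at a compound concentration of 10 µM.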

Another experiment concerns the target T2, FGFR4 (Homo sapiens, UniProt P22455).
T2 construct: purchased ThermoFisher (SelectScreen, Z'-LYTE)
The procedure, abridged:
as §1

The target in the next experiment is T3, SRC (Homo sapiens, UniProt P12931).
T3 construct: purchased ThermoFisher (SelectScreen, Z'-LYTE)
The procedure, abridged:
as §1

A further experiment addresses T4, EPHA4 (Homo sapiens, UniProt P54764).
T4 construct: purchased ThermoFisher (SelectScreen, Z'-LYTE)
The procedure, abridged:
as §1

Another experiment addresses T5, TBK1 (Homo sapiens, UniProt Q9UHD2).
T5 construct: purchased ThermoFisher (SelectScreen, Z'-LYTE)
T5 sequence (Q9UHD2 1-729): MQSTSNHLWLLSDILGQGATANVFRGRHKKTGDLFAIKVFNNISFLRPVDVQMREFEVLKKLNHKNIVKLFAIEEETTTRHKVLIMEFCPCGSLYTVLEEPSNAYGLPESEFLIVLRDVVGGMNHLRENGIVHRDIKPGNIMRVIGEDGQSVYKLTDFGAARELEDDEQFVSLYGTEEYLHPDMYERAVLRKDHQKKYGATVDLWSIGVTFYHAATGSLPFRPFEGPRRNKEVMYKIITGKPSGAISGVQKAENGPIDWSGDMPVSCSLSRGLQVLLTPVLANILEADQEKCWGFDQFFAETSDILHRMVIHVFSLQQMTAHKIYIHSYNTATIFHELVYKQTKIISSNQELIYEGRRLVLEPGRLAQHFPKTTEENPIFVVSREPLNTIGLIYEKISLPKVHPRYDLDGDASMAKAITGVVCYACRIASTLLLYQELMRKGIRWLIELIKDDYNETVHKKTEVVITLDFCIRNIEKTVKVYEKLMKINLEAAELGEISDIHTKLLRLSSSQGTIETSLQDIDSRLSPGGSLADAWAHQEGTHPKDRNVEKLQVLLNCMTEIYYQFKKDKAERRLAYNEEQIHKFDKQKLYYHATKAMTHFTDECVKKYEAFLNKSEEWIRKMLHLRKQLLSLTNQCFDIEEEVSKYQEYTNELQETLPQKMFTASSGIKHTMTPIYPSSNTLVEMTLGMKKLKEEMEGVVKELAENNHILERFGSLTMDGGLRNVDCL
The procedure, abridged: as §1

The target in another experiment is T6, MAPK3 (ERK1) (Homo sapiens, UniProt P27361).
T6 construct: purchased ThermoFisher (SelectScreen, Z'-LYTE)
Put shortly: as §1

The target of another experiment is T7, FLT1 (VEGFR1) (Homo sapiens, UniProt P17948).
T7 construct: purchased ThermoFisher (SelectScreen, Z'-LYTE)
The procedure, abridged:
as §1

Another experiment deals with T8, PRKD1 (PKC mu) (Homo sapiens, UniProt Q15139).
T8 construct: purchased ThermoFisher (SelectScreen, Z'-LYTE)
T8 sequence (Q15139 1-912): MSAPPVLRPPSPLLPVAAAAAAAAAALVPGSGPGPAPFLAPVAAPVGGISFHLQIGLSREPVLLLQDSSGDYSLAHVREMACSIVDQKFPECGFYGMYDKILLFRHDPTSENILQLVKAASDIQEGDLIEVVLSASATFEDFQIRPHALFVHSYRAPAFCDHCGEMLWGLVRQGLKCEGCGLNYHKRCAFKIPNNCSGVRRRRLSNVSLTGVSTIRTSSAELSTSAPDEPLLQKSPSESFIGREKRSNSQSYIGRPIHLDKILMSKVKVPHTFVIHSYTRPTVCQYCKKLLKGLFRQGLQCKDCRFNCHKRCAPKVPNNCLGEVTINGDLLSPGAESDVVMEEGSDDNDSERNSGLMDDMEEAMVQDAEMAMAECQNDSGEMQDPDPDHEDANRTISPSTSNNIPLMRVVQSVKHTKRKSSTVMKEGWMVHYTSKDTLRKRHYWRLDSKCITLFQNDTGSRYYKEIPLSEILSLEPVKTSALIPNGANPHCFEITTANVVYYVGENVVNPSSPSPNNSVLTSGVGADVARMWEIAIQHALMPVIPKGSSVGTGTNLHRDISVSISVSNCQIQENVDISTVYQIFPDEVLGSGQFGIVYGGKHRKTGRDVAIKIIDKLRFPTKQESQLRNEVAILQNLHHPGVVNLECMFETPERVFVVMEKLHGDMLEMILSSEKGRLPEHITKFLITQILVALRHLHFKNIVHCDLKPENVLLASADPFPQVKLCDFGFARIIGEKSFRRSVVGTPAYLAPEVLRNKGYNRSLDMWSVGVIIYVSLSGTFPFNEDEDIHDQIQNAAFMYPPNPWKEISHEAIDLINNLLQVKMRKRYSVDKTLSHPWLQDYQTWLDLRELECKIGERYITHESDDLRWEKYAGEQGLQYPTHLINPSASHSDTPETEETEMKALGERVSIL
Put shortly: as §1

A further experiment deals with T9, CAMK1D (CaMKI delta) (Homo sapiens, UniProt Q8IU85).
T9 construct: purchased ThermoFisher (SelectScreen, Z'-LYTE)
The procedure, abridged:
as §1

The next experiment deals with T10, PRKG1 (Homo sapiens, UniProt Q13976).
T10 construct: purchased ThermoFisher (SelectScreen, Z'-LYTE)
T10 sequence (Q13976 1-671): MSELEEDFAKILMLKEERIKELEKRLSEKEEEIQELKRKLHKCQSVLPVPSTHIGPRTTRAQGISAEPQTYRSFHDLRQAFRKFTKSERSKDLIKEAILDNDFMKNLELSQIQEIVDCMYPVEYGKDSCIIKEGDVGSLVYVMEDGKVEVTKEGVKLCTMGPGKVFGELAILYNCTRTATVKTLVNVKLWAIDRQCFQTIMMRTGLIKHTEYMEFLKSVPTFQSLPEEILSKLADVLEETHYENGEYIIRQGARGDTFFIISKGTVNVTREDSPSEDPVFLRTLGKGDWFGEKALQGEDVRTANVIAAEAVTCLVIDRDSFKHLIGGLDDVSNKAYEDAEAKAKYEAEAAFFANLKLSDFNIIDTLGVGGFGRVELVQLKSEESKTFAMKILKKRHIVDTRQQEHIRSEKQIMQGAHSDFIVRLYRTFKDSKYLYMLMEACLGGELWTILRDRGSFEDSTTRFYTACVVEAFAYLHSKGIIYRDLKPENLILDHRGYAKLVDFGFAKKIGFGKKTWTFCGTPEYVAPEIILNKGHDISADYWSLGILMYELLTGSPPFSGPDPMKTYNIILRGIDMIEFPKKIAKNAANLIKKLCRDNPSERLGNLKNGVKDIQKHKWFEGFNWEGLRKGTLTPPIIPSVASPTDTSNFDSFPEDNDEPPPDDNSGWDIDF
Put shortly: as §1

The next experiment deals with T11, MET (cMet) (Homo sapiens, UniProt P08581).
T11 construct: purchased ThermoFisher (SelectScreen, Z'-LYTE)
Put shortly: as §1

T4 sequence (P54764 20-986): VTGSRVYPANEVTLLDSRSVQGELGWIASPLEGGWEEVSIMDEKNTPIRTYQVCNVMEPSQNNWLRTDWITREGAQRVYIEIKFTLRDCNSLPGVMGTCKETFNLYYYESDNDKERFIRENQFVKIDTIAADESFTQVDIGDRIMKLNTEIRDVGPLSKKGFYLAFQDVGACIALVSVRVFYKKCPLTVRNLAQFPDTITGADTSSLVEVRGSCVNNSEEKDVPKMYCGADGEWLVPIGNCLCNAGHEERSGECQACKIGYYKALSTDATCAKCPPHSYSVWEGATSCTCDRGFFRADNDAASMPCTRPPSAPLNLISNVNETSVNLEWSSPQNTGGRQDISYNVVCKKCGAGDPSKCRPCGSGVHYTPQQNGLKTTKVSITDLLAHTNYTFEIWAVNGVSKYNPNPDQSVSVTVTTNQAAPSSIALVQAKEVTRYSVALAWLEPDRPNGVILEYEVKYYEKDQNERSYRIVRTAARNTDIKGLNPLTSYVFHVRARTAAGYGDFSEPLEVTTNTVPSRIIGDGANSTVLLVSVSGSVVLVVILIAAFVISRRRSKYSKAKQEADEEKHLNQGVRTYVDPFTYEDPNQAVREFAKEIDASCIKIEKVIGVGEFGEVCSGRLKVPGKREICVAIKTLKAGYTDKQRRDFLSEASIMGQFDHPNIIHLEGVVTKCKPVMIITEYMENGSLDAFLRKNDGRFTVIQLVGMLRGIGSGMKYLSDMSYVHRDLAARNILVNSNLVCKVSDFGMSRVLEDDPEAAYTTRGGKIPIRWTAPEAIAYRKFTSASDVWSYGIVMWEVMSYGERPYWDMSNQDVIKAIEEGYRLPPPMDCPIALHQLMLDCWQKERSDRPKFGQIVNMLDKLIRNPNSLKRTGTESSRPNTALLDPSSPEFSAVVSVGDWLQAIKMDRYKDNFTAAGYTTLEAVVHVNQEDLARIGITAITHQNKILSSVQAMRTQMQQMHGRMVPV
T1 sequence (Q5VT25 whole entry): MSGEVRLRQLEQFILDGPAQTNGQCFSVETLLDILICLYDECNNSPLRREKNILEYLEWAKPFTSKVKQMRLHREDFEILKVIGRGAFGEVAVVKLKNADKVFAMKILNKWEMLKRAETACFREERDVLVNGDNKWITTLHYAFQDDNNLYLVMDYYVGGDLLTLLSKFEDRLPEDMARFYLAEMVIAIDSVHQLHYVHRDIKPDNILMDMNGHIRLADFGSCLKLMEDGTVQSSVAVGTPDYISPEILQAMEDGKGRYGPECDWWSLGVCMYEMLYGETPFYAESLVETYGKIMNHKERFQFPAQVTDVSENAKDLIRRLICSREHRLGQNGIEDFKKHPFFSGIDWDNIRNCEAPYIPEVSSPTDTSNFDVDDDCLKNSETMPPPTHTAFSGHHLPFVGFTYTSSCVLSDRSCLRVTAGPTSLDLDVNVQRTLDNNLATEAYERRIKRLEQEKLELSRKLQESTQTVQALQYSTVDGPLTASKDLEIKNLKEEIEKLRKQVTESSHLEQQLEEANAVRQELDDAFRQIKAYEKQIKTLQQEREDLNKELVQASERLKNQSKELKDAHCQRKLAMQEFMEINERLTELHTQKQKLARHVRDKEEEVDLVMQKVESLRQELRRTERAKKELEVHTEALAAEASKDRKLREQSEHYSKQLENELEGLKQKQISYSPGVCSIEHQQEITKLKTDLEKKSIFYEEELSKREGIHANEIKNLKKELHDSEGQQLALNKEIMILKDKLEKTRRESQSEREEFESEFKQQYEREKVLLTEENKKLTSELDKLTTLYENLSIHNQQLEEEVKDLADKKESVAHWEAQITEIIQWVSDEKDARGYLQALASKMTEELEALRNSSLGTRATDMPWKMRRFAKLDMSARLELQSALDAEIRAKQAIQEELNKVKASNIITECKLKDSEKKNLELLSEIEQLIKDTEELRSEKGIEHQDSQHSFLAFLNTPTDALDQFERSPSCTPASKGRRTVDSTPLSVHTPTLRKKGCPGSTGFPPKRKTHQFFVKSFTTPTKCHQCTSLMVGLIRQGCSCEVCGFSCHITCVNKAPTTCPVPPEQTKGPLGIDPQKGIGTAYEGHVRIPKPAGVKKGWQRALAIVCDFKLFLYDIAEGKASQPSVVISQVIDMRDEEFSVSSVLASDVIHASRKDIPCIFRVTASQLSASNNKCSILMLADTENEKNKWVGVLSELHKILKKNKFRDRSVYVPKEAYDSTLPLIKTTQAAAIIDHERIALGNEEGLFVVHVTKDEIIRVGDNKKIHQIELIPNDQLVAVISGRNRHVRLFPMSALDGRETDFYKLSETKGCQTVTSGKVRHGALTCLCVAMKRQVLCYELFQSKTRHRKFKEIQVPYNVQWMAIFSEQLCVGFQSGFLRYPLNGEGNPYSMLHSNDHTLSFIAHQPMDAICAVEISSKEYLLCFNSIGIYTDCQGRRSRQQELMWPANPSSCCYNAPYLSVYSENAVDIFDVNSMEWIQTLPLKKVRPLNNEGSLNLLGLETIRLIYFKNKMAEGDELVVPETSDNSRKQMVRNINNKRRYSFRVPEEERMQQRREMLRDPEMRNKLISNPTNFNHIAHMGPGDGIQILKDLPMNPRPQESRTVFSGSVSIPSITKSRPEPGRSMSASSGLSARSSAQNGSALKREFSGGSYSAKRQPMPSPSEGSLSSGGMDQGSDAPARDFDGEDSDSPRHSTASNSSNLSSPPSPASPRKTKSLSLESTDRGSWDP
T2 sequence (P22455 22-802): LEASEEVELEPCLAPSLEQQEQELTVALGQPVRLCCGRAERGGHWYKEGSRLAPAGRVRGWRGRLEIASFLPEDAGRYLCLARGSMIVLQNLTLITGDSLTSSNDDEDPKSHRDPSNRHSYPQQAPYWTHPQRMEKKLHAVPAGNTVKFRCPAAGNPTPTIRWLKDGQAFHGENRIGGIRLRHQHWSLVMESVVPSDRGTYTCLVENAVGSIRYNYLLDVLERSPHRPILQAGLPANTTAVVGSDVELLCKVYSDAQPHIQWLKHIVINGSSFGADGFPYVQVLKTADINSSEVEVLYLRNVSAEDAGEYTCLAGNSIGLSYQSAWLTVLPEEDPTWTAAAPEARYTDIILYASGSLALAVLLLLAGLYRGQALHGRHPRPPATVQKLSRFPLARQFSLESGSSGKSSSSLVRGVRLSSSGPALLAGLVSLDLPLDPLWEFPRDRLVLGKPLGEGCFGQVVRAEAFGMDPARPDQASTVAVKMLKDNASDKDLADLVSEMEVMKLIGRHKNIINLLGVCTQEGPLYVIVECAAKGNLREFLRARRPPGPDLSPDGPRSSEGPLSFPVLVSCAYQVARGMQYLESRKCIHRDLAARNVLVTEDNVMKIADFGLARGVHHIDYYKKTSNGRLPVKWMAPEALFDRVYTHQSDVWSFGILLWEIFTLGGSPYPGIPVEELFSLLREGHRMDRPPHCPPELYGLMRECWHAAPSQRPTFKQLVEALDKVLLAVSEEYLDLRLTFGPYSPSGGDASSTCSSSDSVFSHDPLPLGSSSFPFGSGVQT
T7 sequence (P17948 27-1338): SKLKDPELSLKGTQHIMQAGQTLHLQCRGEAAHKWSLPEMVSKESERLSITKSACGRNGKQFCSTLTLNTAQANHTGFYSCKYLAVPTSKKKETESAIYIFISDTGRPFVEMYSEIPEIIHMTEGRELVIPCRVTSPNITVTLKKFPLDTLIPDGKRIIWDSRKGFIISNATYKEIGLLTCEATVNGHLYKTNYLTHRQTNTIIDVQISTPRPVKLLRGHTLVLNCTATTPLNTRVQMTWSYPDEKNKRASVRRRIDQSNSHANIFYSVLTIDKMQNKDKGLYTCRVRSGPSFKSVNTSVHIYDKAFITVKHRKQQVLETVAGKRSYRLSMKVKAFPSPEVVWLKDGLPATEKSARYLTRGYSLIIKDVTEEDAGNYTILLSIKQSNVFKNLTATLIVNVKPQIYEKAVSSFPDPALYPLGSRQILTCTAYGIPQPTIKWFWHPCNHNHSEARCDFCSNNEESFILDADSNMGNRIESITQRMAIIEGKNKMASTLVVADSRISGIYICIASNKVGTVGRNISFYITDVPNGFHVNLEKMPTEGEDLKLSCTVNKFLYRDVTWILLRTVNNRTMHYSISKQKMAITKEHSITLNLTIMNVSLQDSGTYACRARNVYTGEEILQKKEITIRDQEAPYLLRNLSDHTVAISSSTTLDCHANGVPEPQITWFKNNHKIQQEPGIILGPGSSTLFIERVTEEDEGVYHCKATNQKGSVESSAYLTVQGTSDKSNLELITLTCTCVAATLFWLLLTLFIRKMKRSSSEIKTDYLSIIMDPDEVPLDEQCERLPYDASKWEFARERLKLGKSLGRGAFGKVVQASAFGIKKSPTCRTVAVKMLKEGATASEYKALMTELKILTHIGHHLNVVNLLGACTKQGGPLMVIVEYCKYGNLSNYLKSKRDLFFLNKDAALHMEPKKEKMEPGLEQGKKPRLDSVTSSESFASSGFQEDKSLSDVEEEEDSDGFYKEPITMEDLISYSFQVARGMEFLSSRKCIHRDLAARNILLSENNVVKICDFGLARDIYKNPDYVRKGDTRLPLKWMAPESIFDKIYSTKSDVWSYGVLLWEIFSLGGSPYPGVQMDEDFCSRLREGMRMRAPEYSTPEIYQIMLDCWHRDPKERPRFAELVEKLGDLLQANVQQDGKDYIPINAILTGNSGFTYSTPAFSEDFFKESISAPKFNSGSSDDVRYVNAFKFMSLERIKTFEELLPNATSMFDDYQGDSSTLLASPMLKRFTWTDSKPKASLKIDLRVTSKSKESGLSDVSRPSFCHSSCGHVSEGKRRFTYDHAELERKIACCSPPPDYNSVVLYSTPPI

As usually defined, the inhibition is the change of the read-out against control, counted positive when it falls. Take `Cc1ncc(-c2nc(Nc3ccc(C(=O)NCCN4CCCCC4)cc3)ncc2F)n1C(C)C` [Compound 3]: the inhibition at 10 µM against CDC42 BPA (MRCKA) is 17%; at FGFR4, 19%; at SRC, 79%; against EPHA4 it was 55%; against TBK1, 86%; on MAPK3 (ERK1), 40%. In addition, the inhibition at 10 µM came out at 73% against FLT1 (VEGFR1); 93% at PRKD1 (PKC mu); 59% against CAMK1D (CaMKI delta); 80% against PRKG1; 85% on MET (cMet).
Turning to `Cc1cc(Nc2nc(N)nn2C(=O)NC(C)C)ccc1Cl` [Compound 5], the inhibition at 10 µM on CDC42 BPA (MRCKA) stood at 5%; at FGFR4 it was 10%; on SRC, 26%; against EPHA4, 10%; against TBK1, 27%; on MAPK3 (ERK1), 7%. For the same compound, the inhibition at 10 µM was 34% against FLT1 (VEGFR1); 15% against PRKD1 (PKC mu); 0.357% on CAMK1D (CaMKI delta); -4% on PRKG1; 25% against MET (cMet).
Turning to “XMD8-92 [Compound 2, reference compound]”, the “CDC42 BPA (MRCKA) % Inhibition” value at CDC42 BPA (MRCKA) (10 µM compound, ATP Km app) is recorded as -2.25%. Moreover, the “FGFR4 % Inhibition” value at FGFR4 (10 µM compound, ATP Km app) was found to be 19%. Also, the “SRC % Inhibition” value on SRC (10 µM compound, ATP Km app) came to 11%. Further, the “EPHA4 % Inhibition” value at EPHA4 (10 µM compound, ATP Km app) was found to be 19%. In addition, the “TBK1 % Inhibition” value on TBK1 (10 µM compound, ATP Km app) was 43%. In addition, at MAPK3 (ERK1) (10 µM compound, ATP Km app), the “MAPK3 (ERK1) % Inhibition” value amounted to 8%. At FLT1 (VEGFR1) (10 µM compound, ATP Km app), the “FLT1 (VEGFR1) % Inhibition” value is reported as -1.58%. Further, the “PRKD1 (PKC mu) % Inhibition” value on PRKD1 (PKC mu) (10 µM compound, ATP Km app) is recorded as 17%. Besides, at CAMK1D (CaMKI delta) (10 µM compound, ATP Km app), the “CAMK1D (CaMKI delta) % Inhibition” value was 19%. Besides, the “PRKG1 % Inhibition” value at PRKG1 (10 µM compound, ATP Km app) came out at 10%. Besides, the “MET (cMet) % Inhibition” value at MET (cMet) (10 µM compound, ATP Km app) was 57%.

Values taken from paper PMC4854315, “Discovery of a novel allosteric inhibitor-binding site in ERK5: comparison with the canonical kinase hinge ATP-binding site” (Acta Crystallographica. Section D, Structural Biology, 2016).
